In US20150166505A1, “PYRIDINYL-SUBSTITUTED PYRAZOLYL CARBOXAMIDES” (GRÜNENTHAL GMBH, priority 2013, published 2015) one finds inhibition, solubility and IC50 data, which are given here for 7 compounds.

Data set [1] has as its target T1, CRAC channel (endogenous SOC in HEK293 cells) (Homo sapiens, UniProt Q96D31).
T1 construct: endogenous in cells; host or cells: HEK293 (ECACC)
The data set can be described thus: HEK Calcium Influx Assay (FLIPR). The format is cell-based. An outline of the steps:
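Endogenous SOC in HEK293 cells, Calcium-4 dye-loaded; stores depleted with 2 μM thapsigargin in Ca2+-free HBS (100 μM EGTA, pH 7.4) 10 min, then 3 mM CaCl2 added. Compound given after 15 min; signal averaged 9.5–10 min post-addition versus DMSO and non-TG controls. IC50 from 8-point 1:3.16 series starting 10 μM.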

The nature of data set [2]: Nephelometric Solubility Measurement. In kind it is physicochemical. The following applies: aqueous buffer, kinetic from dmso stock; phosphate buffered saline pH 7.4, 37° C., incubation 2 minutes. On the procedure: Nephelometric Solubility Measurement
BMG Labtech Nephelostar (S/N 504-0167), 37° C.; Gain: 100; Laser Beam Focus 1.5 mm; Laser intensity 80%; measurement time/well 0.1 s; positioning delay 0.1 s; data analysis: BMG Labtech MARS software
Measurements with BMG Labtech Nephelostar performed though addition of DMSO stock solutions of compound (2, 5, 10, 20, 30, 40, 50, 60, 80, 100 [μg/mL]) into phosphate buffered saline (pH 7.4, purchased from Invitrogen, catalogue number 10010-056); incubation time: 2 minutes [blank measurement contains DMSO (2.5 μL) and buffered saline (47.5 μL)]; Detection of insoluble particles in liquid samples was performed by measuring forward scattered light.

Data set [3] concerns Interleukin-2 (IL-2) production/release in Jurkat T cell line. The data set can be described thus: Jurkat IL-2 Production Assay. In kind it is cell-based. The following applies: Homo sapiens; Jurkat T cells, PHA stimulation 22 hours. Summed up:
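Jurkat E6-1 cells (5*10^5/well) preincubated 30 min with compound, then stimulated with 15 μg/ml PHA for 22 h at 37 °C. IC50 from 8-point 1:3.16 dilutions starting at 10 μM.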

Where [4] appears, read: numeric values of Table 2, read-out: inhib. [@ 10 μM] FLIPR.
Setting [5] is: thapsigargin store depletion, read-out: % inhib. [@ 10 μM] FLIPR.

Converted amounts (≈) assume the structure as drawn. Read-outs that look alike come from different tables or passages of the source. Some results are limits rather than exact numbers.

T1 sequence (Q96D31 whole entry): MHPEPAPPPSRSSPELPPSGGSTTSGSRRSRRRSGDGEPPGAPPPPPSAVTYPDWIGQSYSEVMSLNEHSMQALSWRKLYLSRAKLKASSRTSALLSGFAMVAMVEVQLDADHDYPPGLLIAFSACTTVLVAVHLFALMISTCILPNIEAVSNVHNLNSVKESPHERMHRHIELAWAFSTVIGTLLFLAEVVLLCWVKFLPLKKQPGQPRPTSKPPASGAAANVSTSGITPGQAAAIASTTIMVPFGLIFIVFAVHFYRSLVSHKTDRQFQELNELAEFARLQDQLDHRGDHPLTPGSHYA

With `CCOc1cc(C)c(-c2cc(C(=O)Nc3c(F)cccc3F)nn2C)cn1` [Example 3, N-(2,6-Difluoro-phenyl)-5-(6-ethoxy-4-methyl-pyridin-3-yl)-1-methyl-1H-pyrazole-3-carboxylic acid amide], the inhibition at 10 µM is 75% in data set [1] (setting [4]) and greater than 70% in data set [1] (setting [5]). Moreover, in data set [2], the solubility at 2 min is 149 µM (≈ 55.6 µg/mL). The IC50 in data set [3] was less than 0.5 µM.
For `COc1cc(OC)c(-c2cc(C(=O)Nc3c(F)cccc3F)nn2C)cn1` [Example 38, N-(2,6-Difluoro-phenyl)-5-(4,6-dimethoxy-pyridin-3-yl)-1-methyl-1H-pyrazole-3-carboxylic acid amide], in data set [1] (setting [5]), the inhibition at 10 µM is greater than 70%. The solubility at 2 min in data set [2] is greater than 267 µM. In addition, in data set [3], the IC50 is less than 0.5 µM.
The corresponding values for `COc1ncc(-c2nn(C)c(=O)o2)cc1-c1cc(C(=O)Nc2c(F)cccc2F)nn1C` [Example 74, N-(2,6-Difluoro-phenyl)-5-[2-methoxy-5-(4-methyl-5-oxo-4H-[1,3,4]oxadiazol-2-yl)-pyridin-3-yl]-1-methyl-1H-pyrazole-3-carboxylic acid amide] are less than 50%, 131 µM (≈ 57.8 µg/mL) and 1 to 5 µM.
`COc1ncc(-c2nn(C)c(=O)o2)cc1-c1ccc(NC(=O)c2c(F)cccc2F)cc1` [Comparative example #5, reference compound] showed a solubility at 2 min in data set [2] of less than 11 µM.
Compound `CCOc1cc(C)c(-c2ccc(NC(=O)c3c(F)cccc3F)cc2)cn1` [Comparative example #3, reference compound] came in with a solubility at 2 min in data set [2] of less than 14 µM.
The same measure, in the same setting: with `COc1cc(OC)c(-c2ccc(NC(=O)c3c(F)cccc3F)cc2)cn1` [Comparative example #4, reference compound] the figure was 38.8 µM (≈ 14.4 µg/mL).
Turning to `Cc1cc(OC(F)(F)F)ncc1-c1cc(C(=O)Nc2c(F)cccc2F)nn1C` [Example 12, N-(2,6-Difluoro-phenyl)-1-methyl-5-[4-methyl-6-(trifluoromethyloxy)-pyridin-3-yl]-1H-pyrazole-3-carboxylic acid amide], the figures for the inhibition at 10 µM in data set [1] (setting [4]) and in data set [1] (setting [5]) were 92% and greater than 70%, respectively. Also, the IC50 in data set [3] was less than 0.5 µM.
